These results are taken from paper PMC9291665, “Discovery and SAR analysis of 5-chloro-4-((substituted phenyl)amino)pyrimidine bearing histone deacetylase inhibitors” (Journal of Enzyme Inhibition and Medicinal Chemistry, 2022).

Test [1] deals with Hela nucleus extract containing a mixture of HDAC isoforms. The experiment in a line: HDAC enzyme inhibitory screening against Hela nucleus extract. In kind it is biochemical. To be noted: at concentration of 1.0 µM, mean of three experiments. How it is done:
The synthesised molecules were firstly screened against Hela nucleus extract containing a mixture of HDAC isoforms.
All HDAC enzymes were purchased from BPS Bioscience. In short, 60 µL of recombinant HDAC enzyme solution was mixed with various concentrations of test compound (40 µL), and then incubated at 37 °C for 30 minutes. The reaction was terminated by adding 100 µL of imaging agent containing trypsin and trichostatin A (TSA). After standing for 20 min, the fluorescence intensity was measured at the excitation and emission wavelengths of 360 and 460 nm with a microplate reader. The inhibition rate was calculated from the fluorescence intensity readings of the test wells relative to the control wells, and the IC50 curve and value were determined by GraphPad Prism 6.0 software.

Test [2] concerns K562 cells. The test is described as follows: In vitro antiproliferative assay (CCK-8), K562. In kind it is cell-based. To be noted: Homo sapiens, at concentration of 1.0 µM, mean of three experiments, read-out: K562 percentage inhibitory rate. Here is the method:
The proliferation of cancer cells was tested by CCK-8 assay. Briefly, cells were seeded in 96-well plate with about 5 × 10^3 cells in each well. The cells were treated with tested compounds after 24 h of incubation. CCK-8 reagent ([…]) was added to each well after 72 h of incubation, and cells were incubated at 37 °C for 4 h. The light absorbance at 450 nm was measured by using an Opsys microplate reader (Dynex Technologies, Chantilly, VA, USA).

Another test relates to H3122. On the set-up: method as in PMID 17185414, PMID 27144831. As to conditions: cited from earlier work.
The next test deals with H2228. Details: method as in PMID 17185414, PMID 27144831. As to conditions: cited from earlier work.
The next test relates to MDA-MB-231. The experiment in a line: In vitro antiproliferative assay (CCK-8), MDA-MB-231. To be noted: Homo sapiens, CCK-8, 72 h. The class given is cell-based. How it is done:
(§1) Compound L20 with good performances in both enzyme and K562 cell inhibitory tests were selected for further antiproliferative assay against various cell lines. K562, U266, U937, C6, Fadu, MDA-MB-231, MDA-MB-468, A549, A2780 and HepG2 cell lines were used in the cell-based anticancer evaluation of L20.
(§2) The proliferation of cancer cells was tested by CCK-8 assay. Briefly, cells were seeded in 96-well plate with about 5 × 10^3 cells in each well. The cells were treated with tested compounds after 24 h of incubation. CCK-8 reagent ([…]) was added to each well after 72 h of incubation, and cells were incubated at 37 °C for 4 h. The light absorbance at 450 nm was measured by using an Opsys microplate reader (Dynex Technologies, Chantilly, VA, USA). Results are illustrated as percent of cell viability normalised to DMSO-treated control cells.

Another test has as its system MDA-MB-468. The test is described as follows: In vitro antiproliferative assay (CCK-8), MDA-MB-468. In kind it is cell-based. To be noted: Homo sapiens, CCK-8, 72 h. How it is done: as §1, §2
Test [3] relates to K562 cells. The experiment in a line: Cell apoptosis analysis by flow cytometry (Annexin V-BV421 / 7-AAD). As to conditions: 24 h, control 1.14%. On the technique in general: In flow cytometry, cells or beads pass a laser one at a time.
Description: Cells were incubated with Annexin V-BV421 (Becton Dickinson, USA) and 7-AAD (Becton Dickinson, USA) double labelling for 30 min in the dark at room temperature and measured by flow cytometry (FACSAriaIII, Becton Dickinson, USA). The data was analysed using Flowjo-V10 software.

As to `O=C(NO)c1ccc(N2CCN(c3ncc(Cl)c(Nc4ccccc4)n3)CC2)cc1` [Compound L1, 4–(4-(5-chloro-4-(phenylamino)pyrimidin-2-yl)piperazin-1-yl)-N-hydroxybenzamide], the “HDACs percentage inhibitory rate” value in test [1] turned out to be 50.54 ± 2.27%. In the test on K562 cells [2], the inhibition at 1 µM turned out to be 30.7 ± 0.32%.

As for `O=C(NO)c1ccc(N2CCN(c3ncc(Cl)c(Nc4ccc(I)cc4)n3)CC2)cc1` [Compound L17, 4-(4-(5-chloro-4-((4-iodophenyl)amino)pyrimidin-2-yl)piperazin-1-yl)-N-hydroxybenzamide], in test [1], the “HDACs percentage inhibitory rate” value was determined as 54.51 ± 3.05%. Also, the inhibition at 1 µM in the test on K562 cells [2] turned out to be 56.4 ± 2.16%.

As to `O=C(NO)c1ccc(N2CCN(c3ncc(Cl)c(Nc4cccc(I)c4)n3)CC2)cc1` [Compound L16, 4-(4-(5-chloro-4-((3-iodophenyl)amino)pyrimidin-2-yl)piperazin-1-yl)-N-hydroxybenzamide], the “HDACs percentage inhibitory rate” value in test [1] was found to be 46.50 ± 4.74%. Further, the inhibition at 1 µM with K562 cells [2] stood at 37.1 ± 1.54%.

On to `CCc1ccc(Nc2nc(N3CCN(c4ccc(C(=O)NO)cc4)CC3)ncc2Cl)cc1` [Compound L3, 4–(4-(5-chloro-4-((4-ethylphenyl)amino)pyrimidin-2-yl)piperazin-1-yl)-N-hydroxybenzamide], for which the “HDACs percentage inhibitory rate” value in test [1] was 50.54 ± 0.21%. Also, the inhibition at 1 µM in the test with K562 cells [2] is 19.5 ± 0.06%.

For `N#Cc1ccc(Nc2nc(N3CCN(c4ccc(C(=O)NO)cc4)CC3)ncc2Cl)cc1` [Compound L5, 4–(4-(5-chloro-4-((4-cyanophenyl)amino)pyrimidin-2-yl)piperazin-1-yl)-N-hydroxybenzamide], in test [1], the “HDACs percentage inhibitory rate” value was 48.33 ± 0.64%. For the same compound, the inhibition at 1 µM in the test on K562 cells [2] is 31.51 ± 0.09%.

For `O=C(NO)c1ccc(N2CCN(c3ncc(Cl)c(Nc4ccc(F)c(Cl)c4)n3)CC2)cc1` [Compound L18, 4-(4-(5-chloro-4-((3-chloro-4-fluorophenyl)amino)pyrimidin-2-yl)piperazin-1-yl)-N-hydroxybenzamide], the “HDACs percentage inhibitory rate” value in test [1] is on record as 52.92 ± 2.00%. Moreover, the inhibition at 1 µM with K562 cells [2] amounted to 31.3 ± 0.92%.

Usually GI50 stands for the concentration giving 50% growth inhibition. `Cc1cc(Nc2ncc(Cl)c(Nc3ccccc3S(=O)(=O)C(C)C)n2)c(OC(C)C)cc1C1CCNCC1` [Ceritinib]: the 50% growth inhibitory concentration (GI50) in the test on H3122 was 62 nM; with H2228, 121 nM.

Regarding `COc1cccc(Nc2nc(N3CCN(c4ccc(C(=O)NO)cc4)CC3)ncc2Cl)c1` [Compound L9, 4–(4-(5-chloro-4-((3-methoxyphenyl)amino)pyrimidin-2-yl)piperazin-1-yl)-N-hydroxybenzamide], the “HDACs percentage inhibitory rate” value in test [1] turned out to be 55.28 ± 0.15%. The inhibition at 1 µM in the test on K562 cells [2] stood at 50.8 ± 2.92%.

Regarding `O=C(NO)c1ccc(N2CCN(c3ncc(Cl)c(Nc4ccc(Br)cc4)n3)CC2)cc1` [Compound L11, 4–(4–(4-((4-bromophenyl)amino)-5-chloropyrimidin-2-yl)piperazin-1-yl)-N-hydroxybenzamide], the “HDACs percentage inhibitory rate” value in test [1] is listed as 59.82 ± 4.01%. Moreover, the inhibition at 1 µM in the test on K562 cells [2] is 60.9 ± 0.21%.

Consider `O=C(NO)c1ccc(N2CCN(c3ncc(Cl)c(Nc4cccc(Cl)c4)n3)CC2)cc1` [Compound L12, 4–(4-(5-chloro-4-((3-chlorophenyl)amino)pyrimidin-2-yl)piperazin-1-yl)-N-hydroxybenzamide], for which the “HDACs percentage inhibitory rate” value in test [1] is given as 32.74 ± 0.38%. In addition, in the test with K562 cells [2], the inhibition at 1 µM was found to be 50.6 ± 1.86%.

A word on the IC50: it is the midpoint of a concentration-inhibition curve. `O=C(CCCCCCC(=O)Nc1ccccc1)NO` [SAHA, Vorinostat, reference compound]: the figures for the 50% inhibitory concentration (IC50) in the test with MDA-MB-231 and in the test with MDA-MB-468 were 3590 ± 240 nM and 4850 ± 230 nM, respectively. For the same compound, the “apoptotic rate of K562 cells” value in the test on K562 cells [3] (1 µM) came out at 1.39%; with K562 cells [3] (2 µM) it was 3.36%; with K562 cells [3] (4 µM), 19.75%.

Consider `CCOc1ccc(Nc2nc(N3CCN(c4ccc(C(=O)NO)cc4)CC3)ncc2Cl)cc1` [Compound L8, 4–(4-(5-chloro-4-((4-ethoxyphenyl)amino)pyrimidin-2-yl)piperazin-1-yl)-N-hydroxybenzamide], for which the “HDACs percentage inhibitory rate” value in test [1] was found to be 49.32 ± 0.89%. Also, in the test on K562 cells [2], the inhibition at 1 µM was 37.1 ± 1.54%.

Consider `COc1ccc(Nc2nc(N3CCN(c4ccc(C(=O)NO)cc4)CC3)ncc2Cl)cc1OC` [Compound L7, 4–(4-(5-chloro-4-((3,4-dimethoxyphenyl)amino)pyrimidin-2-yl)piperazin-1-yl)-N-hydroxybenzamide], for which the “HDACs percentage inhibitory rate” value in test [1] is listed as 58.37 ± 1.55%. For the same compound, the inhibition at 1 µM in the test on K562 cells [2] was 63.9 ± 1.12%.

`O=C(NO)c1ccc(N2CCN(c3ncc(Cl)c(Nc4cccc(Br)c4)n3)CC2)cc1` [Compound L10, 4–(4–(4-((3-bromophenyl)amino)-5-chloropyrimidin-2-yl)piperazin-1-yl)-N-hydroxybenzamide]: in test [1], the “HDACs percentage inhibitory rate” value was found to be 51.50 ± 2.03%. In the test with K562 cells [2], the inhibition at 1 µM was 31.6 ± 1.12%.

For the compound `CC(C)S(=O)(=O)c1ccccc1Nc1nc(N2CCN(c3ccc(C(=O)NO)cc3)CC2)ncc1Cl` [Compound L19, 4-(4-(5-chloro-4-((2-(isopropylsulfonyl)phenyl)amino)pyrimidin-2-yl)piperazin-1-yl)-N-hydroxybenzamide], the “HDACs percentage inhibitory rate” value in test [1] is recorded as 44.91 ± 4.97%. In the test on K562 cells [2], the inhibition at 1 µM is 21.3 ± 0.65%.

On to `O=C(NO)c1ccc(N2CCN(c3ncc(Cl)c(Nc4ccc(F)cc4)n3)CC2)cc1` [Compound L4, 4–(4-(5-chloro-4-((4-fluorophenyl)amino)pyrimidin-2-yl)piperazin-1-yl)-N-hydroxybenzamide], for which, in test [1], the “HDACs percentage inhibitory rate” value is 53.89 ± 3.35%. In addition, the inhibition at 1 µM with K562 cells [2] stood at 58.2 ± 1.05%.

With `COc1ccc(Nc2nc(N3CCN(c4ncc(C(=O)NO)cn4)CC3)ncc2Cl)cc1OC` [Compound L21, 2–(4-(5-chloro-4-((3,4-dimethoxyphenyl)amino)pyrimidin-2-yl)piperazin-1-yl)-N-hydroxypyrimidine-5-carboxamide], the “HDACs percentage inhibitory rate” value in test [1] amounted to 58.95 ± 0.74%. In addition, the inhibition at 1 µM in the test on K562 cells [2] turned out to be 62.6 ± 2.45%.

As to `COc1cc(Nc2nc(N3CCN(c4ccc(C(=O)NO)cc4)CC3)ncc2Cl)cc(OC)c1OC` [Compound L15, 4–(4-(5-chloro-4-((3,4,5-trimethoxyphenyl)amino)pyrimidin-2-yl)piperazin-1-yl)-N-hydroxybenzamide], in test [1], the “HDACs percentage inhibitory rate” value worked out at 58.15 ± 2.02%. The inhibition at 1 µM in the test with K562 cells [2] is 58.6 ± 2.01%.

Take `COc1cc(N2CCC(N3CCN(C)CC3)CC2)ccc1Nc1ncc(Cl)c(Nc2ccccc2P(C)(C)=O)n1` [Brigatinib]: the values for the concentration for 50% growth inhibition (GI50) in the test with H3122 and in the test on H2228 were 4 nM and 10 nM, respectively.

On to `Cc1ccc(Nc2nc(N3CCN(c4ccc(C(=O)NO)cc4)CC3)ncc2Cl)cc1` [Compound L2, 4–(4-(5-chloro-4-(p-tolylamino)pyrimidin-2-yl)piperazin-1-yl)-N-hydroxybenzamide], for which the “HDACs percentage inhibitory rate” value in test [1] came to 47.98 ± 1.54%. In the test with K562 cells [2], the inhibition at 1 µM came to 43.9 ± 0.81%.

As to `COc1cc(Nc2nc(N3CCN(c4ccc(C(=O)NO)cc4)CC3)ncc2Cl)cc(OC)c1` [Compound L6, 4–(4-(5-chloro-4-((3,5-dimethoxyphenyl)amino)pyrimidin-2-yl)piperazin-1-yl)-N-hydroxybenzamide], the “HDACs percentage inhibitory rate” value in test [1] worked out at 59.74 ± 0.03%. In addition, the inhibition at 1 µM with K562 cells [2] was 56.6 ± 0.11%.

In the case of `O=C(NO)c1cnc(N2CCN(c3ncc(Cl)c(Nc4ccc(-c5ccccc5)cc4)n3)CC2)nc1` [Compound L22, 2–(4-(4-([1,1′-biphenyl]-4-ylamino)-5-chloropyrimidin-2-yl)piperazin-1-yl)-N-hydroxypyrimidine-5-carboxamide], in test [1], the “HDACs percentage inhibitory rate” value is 40.93 ± 0.50%. Besides, the inhibition at 1 µM in the test on K562 cells [2] came to 37.1 ± 2.11%.

As to `O=C(NO)c1ccc(N2CCN(c3ncc(Cl)c(Nc4ccc(-c5ccccc5)cc4)n3)CC2)cc1` [Compound L14, 4–(4–(4-([1,1′-biphenyl]-4-ylamino)-5-chloropyrimidin-2-yl)piperazin-1-yl)-N-hydroxybenzamide], the “HDACs percentage inhibitory rate” value in test [1] amounted to 46.80 ± 1.07%. The inhibition at 1 µM in the test on K562 cells [2] amounted to 35.2 ± 1.21%.

As for `O=C(NO)c1ccc(N2CCN(c3ncc(Cl)c(Nc4ccc(Cl)cc4)n3)CC2)cc1` [Compound L13, 4–(4-(5-chloro-4-((4-chlorophenyl)amino)pyrimidin-2-yl)piperazin-1-yl)-N-hydroxybenzamide], in test [1], the “HDACs percentage inhibitory rate” value was found to be 52.44 ± 1.44%. Further, the inhibition at 1 µM in the test on K562 cells [2] came out at 54.1 ± 2.34%.
